Test results reported in US10231954B2, “Neurodegenerative therapies” (LYTIX BIOPHARMA AS, priority 2014, dated 2019).

Experiments:
Format in all cases: biochemical
Conditions in all cases: 100 micromolar inhibitor concentration, 100 is no change
S6K1 = S6K1 (Homo sapiens, UniProt P23443); experiment: Kinase profiling S6K1
Excerpt: (§1) Any value less that 25 is considered to be highly significant inhibition.

MLK3 = MLK3 (Homo sapiens, UniProt Q16584); experiment: Kinase profiling MLK3
Excerpt: as §1

PKCγ = PKCγ (Homo sapiens, UniProt P05129); experiment: Kinase profiling PKCγ
Excerpt: as §1

NEK6 = NEK6 (Homo sapiens, UniProt Q9HC98); experiment: Kinase profiling NEK6
NEK6, sequence (Q9HC98 whole entry, species assumed): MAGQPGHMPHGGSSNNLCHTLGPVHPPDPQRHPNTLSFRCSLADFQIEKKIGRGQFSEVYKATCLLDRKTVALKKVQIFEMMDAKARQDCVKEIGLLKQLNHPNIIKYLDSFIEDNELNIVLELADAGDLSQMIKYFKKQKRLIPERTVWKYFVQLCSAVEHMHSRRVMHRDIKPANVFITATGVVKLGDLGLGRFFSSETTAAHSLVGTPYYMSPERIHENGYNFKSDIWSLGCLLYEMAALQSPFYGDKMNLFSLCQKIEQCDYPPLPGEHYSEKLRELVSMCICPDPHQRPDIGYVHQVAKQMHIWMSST
Excerpt: as §1

LKB1 = biological target: T1, LKB1 (Homo sapiens, UniProt Q15831); experiment: Kinase profiling LKB1
T1 sequence (Q15831 1-433): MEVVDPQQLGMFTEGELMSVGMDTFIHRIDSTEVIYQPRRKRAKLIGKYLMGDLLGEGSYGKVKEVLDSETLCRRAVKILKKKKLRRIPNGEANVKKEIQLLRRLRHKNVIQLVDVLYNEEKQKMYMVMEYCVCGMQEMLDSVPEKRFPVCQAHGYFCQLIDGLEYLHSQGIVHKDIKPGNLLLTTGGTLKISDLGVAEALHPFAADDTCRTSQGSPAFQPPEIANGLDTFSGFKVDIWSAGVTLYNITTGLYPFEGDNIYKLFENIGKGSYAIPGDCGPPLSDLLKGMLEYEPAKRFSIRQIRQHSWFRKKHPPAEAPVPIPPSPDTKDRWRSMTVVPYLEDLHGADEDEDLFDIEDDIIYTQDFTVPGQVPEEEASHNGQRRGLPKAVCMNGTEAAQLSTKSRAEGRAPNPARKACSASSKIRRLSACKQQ
T1 sequence (Q7RTN6 1-431 partner): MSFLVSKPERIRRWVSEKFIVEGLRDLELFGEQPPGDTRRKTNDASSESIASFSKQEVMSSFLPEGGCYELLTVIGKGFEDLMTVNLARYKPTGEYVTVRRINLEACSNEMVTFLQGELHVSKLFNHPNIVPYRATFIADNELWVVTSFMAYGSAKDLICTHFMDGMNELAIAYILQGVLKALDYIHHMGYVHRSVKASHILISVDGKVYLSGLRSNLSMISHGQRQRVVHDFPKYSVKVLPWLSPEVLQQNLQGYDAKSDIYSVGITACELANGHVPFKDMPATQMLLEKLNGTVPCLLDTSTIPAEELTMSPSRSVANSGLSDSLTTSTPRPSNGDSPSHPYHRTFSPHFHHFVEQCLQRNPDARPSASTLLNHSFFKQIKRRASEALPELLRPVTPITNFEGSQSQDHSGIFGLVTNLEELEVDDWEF
T1 sequence (Q9Y376 1-341 partner): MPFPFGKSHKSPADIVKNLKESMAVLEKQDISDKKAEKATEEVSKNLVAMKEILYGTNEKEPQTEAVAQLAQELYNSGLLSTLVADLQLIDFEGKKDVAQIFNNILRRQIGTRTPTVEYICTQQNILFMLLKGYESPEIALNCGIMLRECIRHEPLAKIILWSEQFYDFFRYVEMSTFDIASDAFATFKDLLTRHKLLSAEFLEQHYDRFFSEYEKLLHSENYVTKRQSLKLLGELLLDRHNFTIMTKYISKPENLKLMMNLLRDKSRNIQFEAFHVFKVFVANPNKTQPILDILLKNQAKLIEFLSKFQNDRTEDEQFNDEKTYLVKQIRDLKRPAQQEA
Excerpt: as §1

HER4 = HER4 (Homo sapiens, UniProt Q15303); experiment: Kinase profiling HER4
HER4, sequence (Q15303 26-1308, species assumed): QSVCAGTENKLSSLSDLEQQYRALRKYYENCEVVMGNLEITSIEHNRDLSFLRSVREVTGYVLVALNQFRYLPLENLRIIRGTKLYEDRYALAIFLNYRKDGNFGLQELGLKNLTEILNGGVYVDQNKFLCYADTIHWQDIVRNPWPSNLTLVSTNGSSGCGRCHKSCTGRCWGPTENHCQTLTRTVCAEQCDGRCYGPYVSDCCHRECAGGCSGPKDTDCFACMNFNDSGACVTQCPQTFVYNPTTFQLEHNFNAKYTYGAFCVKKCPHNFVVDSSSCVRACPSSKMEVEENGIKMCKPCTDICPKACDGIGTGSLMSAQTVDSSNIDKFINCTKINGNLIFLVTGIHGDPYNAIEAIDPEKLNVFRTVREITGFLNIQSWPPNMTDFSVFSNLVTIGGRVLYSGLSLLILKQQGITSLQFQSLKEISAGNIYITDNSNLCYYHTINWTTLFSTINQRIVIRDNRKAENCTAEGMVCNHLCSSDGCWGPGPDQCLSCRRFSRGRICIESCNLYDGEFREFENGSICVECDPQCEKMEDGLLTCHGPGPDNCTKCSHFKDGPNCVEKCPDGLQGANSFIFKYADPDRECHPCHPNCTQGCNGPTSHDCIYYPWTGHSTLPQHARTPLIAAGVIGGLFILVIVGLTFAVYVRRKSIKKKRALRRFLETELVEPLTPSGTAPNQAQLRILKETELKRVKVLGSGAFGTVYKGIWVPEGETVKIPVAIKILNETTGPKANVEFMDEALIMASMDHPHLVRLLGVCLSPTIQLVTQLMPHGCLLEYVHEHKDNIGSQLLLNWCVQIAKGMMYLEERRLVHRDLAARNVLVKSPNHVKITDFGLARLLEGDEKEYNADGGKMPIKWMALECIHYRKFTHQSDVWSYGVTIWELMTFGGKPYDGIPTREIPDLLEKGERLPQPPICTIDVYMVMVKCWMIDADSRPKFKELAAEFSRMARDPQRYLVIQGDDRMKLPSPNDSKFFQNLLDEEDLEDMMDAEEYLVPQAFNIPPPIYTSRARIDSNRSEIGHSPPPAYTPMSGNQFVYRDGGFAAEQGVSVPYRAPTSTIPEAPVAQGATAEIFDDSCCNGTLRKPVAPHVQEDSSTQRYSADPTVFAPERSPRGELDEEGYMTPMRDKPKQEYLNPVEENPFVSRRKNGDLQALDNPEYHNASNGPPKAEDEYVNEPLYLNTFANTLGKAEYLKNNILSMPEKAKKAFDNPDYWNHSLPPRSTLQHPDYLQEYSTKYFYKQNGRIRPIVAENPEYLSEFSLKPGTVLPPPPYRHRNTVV
Excerpt: as §1

p38b MAPK = p38b MAPK (Homo sapiens, UniProt Q15759); experiment: Kinase profiling p38b MAPK
Excerpt: as §1

ROCK 2 = ROCK 2 (Homo sapiens, UniProt O75116); experiment: Kinase profiling ROCK 2
ROCK 2, sequence (O75116 whole entry, species assumed): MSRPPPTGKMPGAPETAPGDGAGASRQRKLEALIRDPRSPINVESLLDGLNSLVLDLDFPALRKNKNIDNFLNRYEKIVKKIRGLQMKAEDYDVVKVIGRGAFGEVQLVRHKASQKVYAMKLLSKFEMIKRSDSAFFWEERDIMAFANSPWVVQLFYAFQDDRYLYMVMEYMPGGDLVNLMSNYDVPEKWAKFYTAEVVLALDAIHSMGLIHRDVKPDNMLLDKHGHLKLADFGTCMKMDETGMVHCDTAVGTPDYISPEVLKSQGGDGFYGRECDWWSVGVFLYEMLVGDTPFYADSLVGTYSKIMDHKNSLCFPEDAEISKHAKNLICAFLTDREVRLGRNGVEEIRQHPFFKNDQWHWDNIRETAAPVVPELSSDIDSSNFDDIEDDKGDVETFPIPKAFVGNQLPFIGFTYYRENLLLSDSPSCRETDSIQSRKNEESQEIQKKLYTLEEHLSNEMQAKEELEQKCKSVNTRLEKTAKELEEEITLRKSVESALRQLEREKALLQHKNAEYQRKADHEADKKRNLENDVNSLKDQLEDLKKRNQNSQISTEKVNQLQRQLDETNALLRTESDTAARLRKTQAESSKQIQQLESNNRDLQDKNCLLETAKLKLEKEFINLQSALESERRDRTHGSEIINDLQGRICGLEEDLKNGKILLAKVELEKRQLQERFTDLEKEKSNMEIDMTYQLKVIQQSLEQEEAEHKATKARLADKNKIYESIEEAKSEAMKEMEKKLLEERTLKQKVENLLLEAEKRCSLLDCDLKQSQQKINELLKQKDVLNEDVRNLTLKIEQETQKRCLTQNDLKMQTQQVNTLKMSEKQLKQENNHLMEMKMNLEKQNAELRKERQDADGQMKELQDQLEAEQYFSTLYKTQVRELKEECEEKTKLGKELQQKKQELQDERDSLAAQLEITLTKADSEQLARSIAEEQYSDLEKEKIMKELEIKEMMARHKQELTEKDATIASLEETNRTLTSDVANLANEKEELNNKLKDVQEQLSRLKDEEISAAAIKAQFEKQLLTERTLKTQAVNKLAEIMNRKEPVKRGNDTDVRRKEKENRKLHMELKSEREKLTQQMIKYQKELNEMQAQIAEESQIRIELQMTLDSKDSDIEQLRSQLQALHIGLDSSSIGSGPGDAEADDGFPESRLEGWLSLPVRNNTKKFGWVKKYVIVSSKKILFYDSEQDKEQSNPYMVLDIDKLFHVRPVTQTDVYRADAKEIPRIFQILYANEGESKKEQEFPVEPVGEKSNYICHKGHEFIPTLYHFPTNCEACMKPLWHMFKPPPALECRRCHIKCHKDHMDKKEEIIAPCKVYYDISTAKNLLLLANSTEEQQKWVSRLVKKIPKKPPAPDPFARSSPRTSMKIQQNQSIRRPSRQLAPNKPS
Excerpt: as §1

SRPK1 = SRPK1 (Homo sapiens, UniProt Q96SB4); experiment: Kinase profiling SRPK1
Excerpt: as §1

PKCz = biological target: T2, PKCz (Homo sapiens, UniProt Q05513); experiment: Kinase profiling PKCz
T2 sequence (Q05513 1-592): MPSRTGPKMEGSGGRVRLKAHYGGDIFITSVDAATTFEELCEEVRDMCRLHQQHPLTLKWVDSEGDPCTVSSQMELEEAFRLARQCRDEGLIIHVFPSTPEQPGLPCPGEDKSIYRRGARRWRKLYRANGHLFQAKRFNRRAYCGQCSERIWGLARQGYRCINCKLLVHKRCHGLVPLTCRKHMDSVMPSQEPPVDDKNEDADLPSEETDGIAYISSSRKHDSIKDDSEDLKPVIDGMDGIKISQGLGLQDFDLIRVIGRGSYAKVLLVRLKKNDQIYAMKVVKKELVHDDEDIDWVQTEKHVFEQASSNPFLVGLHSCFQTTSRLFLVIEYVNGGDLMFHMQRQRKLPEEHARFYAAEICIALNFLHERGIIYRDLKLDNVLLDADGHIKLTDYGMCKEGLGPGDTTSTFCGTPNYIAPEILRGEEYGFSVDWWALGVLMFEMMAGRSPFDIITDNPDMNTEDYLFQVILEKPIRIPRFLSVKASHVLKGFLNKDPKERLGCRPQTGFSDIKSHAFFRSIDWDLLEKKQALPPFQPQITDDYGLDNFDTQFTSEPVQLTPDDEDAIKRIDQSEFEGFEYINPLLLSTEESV
Excerpt: as §1

TrkA = TrkA (Homo sapiens, UniProt P04629); experiment: Kinase profiling TrkA
Excerpt: as §1

MKK2 = MKK2 (Homo sapiens, UniProt P36507); experiment: Kinase profiling MKK2
MKK2, sequence (P36507 whole entry, species assumed): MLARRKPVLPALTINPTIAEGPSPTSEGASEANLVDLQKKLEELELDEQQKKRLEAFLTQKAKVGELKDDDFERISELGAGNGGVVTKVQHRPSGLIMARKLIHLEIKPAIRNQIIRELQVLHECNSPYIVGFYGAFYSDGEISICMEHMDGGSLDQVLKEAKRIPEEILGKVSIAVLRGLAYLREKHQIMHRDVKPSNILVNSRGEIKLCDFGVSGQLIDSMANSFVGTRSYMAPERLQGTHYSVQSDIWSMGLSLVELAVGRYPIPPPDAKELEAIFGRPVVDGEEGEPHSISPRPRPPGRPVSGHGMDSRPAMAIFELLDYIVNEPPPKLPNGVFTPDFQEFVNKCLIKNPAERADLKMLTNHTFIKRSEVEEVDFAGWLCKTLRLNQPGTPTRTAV
Excerpt: as §1

PRK2 = PRK2 (Homo sapiens, UniProt Q16513); experiment: Kinase profiling PRK2
Excerpt: as §1

MSK1 = MSK1 (Homo sapiens, UniProt O75582); experiment: Kinase profiling MSK1
MSK1, sequence (O75582 whole entry, species assumed): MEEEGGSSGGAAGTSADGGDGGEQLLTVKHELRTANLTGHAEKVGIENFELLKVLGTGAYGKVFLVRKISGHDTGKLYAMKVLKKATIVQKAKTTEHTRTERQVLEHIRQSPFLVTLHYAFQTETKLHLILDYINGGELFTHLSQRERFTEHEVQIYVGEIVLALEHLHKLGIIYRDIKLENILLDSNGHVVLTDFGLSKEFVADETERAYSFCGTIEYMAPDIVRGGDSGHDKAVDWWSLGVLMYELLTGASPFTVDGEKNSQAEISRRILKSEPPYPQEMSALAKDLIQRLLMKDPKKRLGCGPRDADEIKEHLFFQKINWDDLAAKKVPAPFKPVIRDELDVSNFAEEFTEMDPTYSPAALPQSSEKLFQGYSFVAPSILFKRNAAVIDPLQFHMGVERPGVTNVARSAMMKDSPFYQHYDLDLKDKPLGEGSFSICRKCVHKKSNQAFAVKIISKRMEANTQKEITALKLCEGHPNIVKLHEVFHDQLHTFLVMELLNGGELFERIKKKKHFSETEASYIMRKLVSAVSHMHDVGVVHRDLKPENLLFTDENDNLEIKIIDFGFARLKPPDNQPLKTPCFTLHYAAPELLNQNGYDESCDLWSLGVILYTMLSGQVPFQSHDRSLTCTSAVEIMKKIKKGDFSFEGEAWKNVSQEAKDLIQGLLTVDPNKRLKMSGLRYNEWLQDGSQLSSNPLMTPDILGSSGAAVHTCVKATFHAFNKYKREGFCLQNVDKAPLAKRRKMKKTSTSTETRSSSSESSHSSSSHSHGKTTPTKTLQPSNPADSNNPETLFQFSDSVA
Excerpt: as §1

TAK1 = biological target: T3, TAK1 (Homo sapiens, UniProt O43318); experiment: Kinase profiling TAK1
T3 sequence (O43318 1-303 limits assumed): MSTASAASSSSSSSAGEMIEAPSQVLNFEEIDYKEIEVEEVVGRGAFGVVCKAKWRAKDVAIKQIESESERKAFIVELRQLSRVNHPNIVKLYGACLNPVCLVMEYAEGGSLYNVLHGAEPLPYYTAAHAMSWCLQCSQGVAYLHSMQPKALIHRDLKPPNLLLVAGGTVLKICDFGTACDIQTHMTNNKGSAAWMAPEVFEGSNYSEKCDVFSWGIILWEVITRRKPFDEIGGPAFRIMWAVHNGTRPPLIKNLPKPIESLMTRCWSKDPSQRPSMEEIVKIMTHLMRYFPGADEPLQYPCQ
T3 sequence (Q15750 437-504 partner limits assumed): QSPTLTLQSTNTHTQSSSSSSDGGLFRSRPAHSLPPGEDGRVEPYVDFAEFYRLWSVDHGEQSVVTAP
Excerpt: as §1

MLK3, sequence (Q16584 whole entry, species assumed): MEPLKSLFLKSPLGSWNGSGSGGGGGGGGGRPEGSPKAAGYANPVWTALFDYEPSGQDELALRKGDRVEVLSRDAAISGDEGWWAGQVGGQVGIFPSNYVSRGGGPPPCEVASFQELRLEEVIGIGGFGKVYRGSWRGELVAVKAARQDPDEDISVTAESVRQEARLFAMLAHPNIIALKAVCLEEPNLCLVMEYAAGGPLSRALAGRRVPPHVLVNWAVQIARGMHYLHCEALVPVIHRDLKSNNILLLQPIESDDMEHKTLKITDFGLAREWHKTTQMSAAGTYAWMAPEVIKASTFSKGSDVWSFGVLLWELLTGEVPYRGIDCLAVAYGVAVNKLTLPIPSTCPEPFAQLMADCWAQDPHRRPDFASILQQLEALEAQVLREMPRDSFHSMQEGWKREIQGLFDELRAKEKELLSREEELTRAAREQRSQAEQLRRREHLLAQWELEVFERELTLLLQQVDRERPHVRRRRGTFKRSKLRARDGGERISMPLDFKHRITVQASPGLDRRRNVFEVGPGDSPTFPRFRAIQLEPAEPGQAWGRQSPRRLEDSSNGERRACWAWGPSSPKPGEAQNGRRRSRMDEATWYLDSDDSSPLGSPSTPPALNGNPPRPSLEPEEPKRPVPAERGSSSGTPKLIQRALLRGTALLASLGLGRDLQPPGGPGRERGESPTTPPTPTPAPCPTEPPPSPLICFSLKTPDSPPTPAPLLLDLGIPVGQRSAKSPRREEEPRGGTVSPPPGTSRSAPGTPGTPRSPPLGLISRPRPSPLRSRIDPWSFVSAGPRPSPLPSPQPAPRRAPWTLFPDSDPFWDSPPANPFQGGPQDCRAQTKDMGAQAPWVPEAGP

Row | Structure (SMILES) | residual kinase activity, S6K1 (S6K1) | residual kinase activity, MLK3 (MLK3) | residual kinase activity, PKCγ (PKCγ) | residual kinase activity, NEK6 (NEK6) | residual kinase activity, LKB1 (LKB1) | residual kinase activity, HER4 (HER4) | residual kinase activity, p38b MAPK (p38b MAPK) | residual kinase activity, ROCK 2 (ROCK 2) | residual kinase activity, SRPK1 (SRPK1) | residual kinase activity, PKCz (PKCz) | residual kinase activity, TrkA (TrkA) | residual kinase activity, MKK2 (MKK2) | residual kinase activity, PRK2 (PRK2) | residual kinase activity, MSK1 (MSK1) | residual kinase activity, TAK1 (TAK1) | further results
1 | CC(=O)Nc1nc2cc(F)ccc2s1 [Compound 03-77] | – | – | – | – | – | – | – | – | – | – | – | – | – | – | – | remaining activity at 100 µM (S6K1; read-out: residual kinase activity, S6K1): 48%; remaining activity at 100 µM (MLK3; read-out: residual kinase activity, MLK3): 44%; remaining activity at 100 µM (PKCγ; read-out: residual kinase activity, PKCγ): 102%; remaining activity at 100 µM (NEK6; read-out: residual kinase activity, NEK6): 96%; remaining activity at 100 µM (LKB1; read-out: residual kinase activity, LKB1): 85%; remaining activity at 100 µM (HER4; read-out: residual kinase activity, HER4): 92%; remaining activity at 100 µM (p38b MAPK; read-out: residual kinase activity, p38b MAPK): 79%; remaining activity at 100 µM (ROCK 2; read-out: residual kinase activity, ROCK 2): 37%; remaining activity at 100 µM (SRPK1; read-out: residual kinase activity, SRPK1): 65%; remaining activity at 100 µM (PKCz; read-out: residual kinase activity, PKCz): 110%; remaining activity at 100 µM (TrkA; read-out: residual kinase activity, TrkA): 59%; remaining activity at 100 µM (MKK2; read-out: residual kinase activity, MKK2): 101%; remaining activity at 100 µM (PRK2; read-out: residual kinase activity, PRK2): 74%; remaining activity at 100 µM (MSK1; read-out: residual kinase activity, MSK1): 74%; remaining activity at 100 µM (TAK1; read-out: residual kinase activity, TAK1): 46%
2 | O=C(Nc1nc2ccc(O)cc2s1)c1ccncc1 [Compound 08-42] | 38 | 30 | 93 | 75 | 65 | 40 | 86 | 43 | 19 | 76 | 81 | 72 | 44 | 92 | 25 | –
3 | O=C(Nc1nc2ccc(O)cc2s1)c1cccnc1 [Compound 08-44] | 17 | 26 | 73 | 84 | 45 | 17 | 89 | 42 | 16 | 81 | 71 | 48 | 46 | 49 | 18 | –
